From EP4230621A1, “SUBSTITUTED N-BENZOIC ACID URACILS, THEIR SALTS AND USE OF SAID COMPOUNDS AS HERBICIDAL AGENTS” (Bayer AG, priority 2022, dated 2023)

Columns and labels:
Assay type in all cases: in vivo
[1] = test system: Triticum aestivum; test: Post-emergence action on crop plants, TRZAS (greenhouse pot test); conditions: crop plant
Source text: (§1) Die folgenden Abkürzungen werden für die in den folgenden Tabellen aufgeführten Kultur- und Schadpflanzen verwendet: ABUTH: Abutilon theophrasti ALOMY: Alopecurus myosuroides AMARE: Amaranthus retroflexus BRSNS: Brassica napus DIGSA: Digitaria sanguinalis ECHCG: Echinochloa crus-galli GLXMA: Glycine max KCHSC: Kochia scoparia LOLRI: Lolium rigidum MATIN: Matricaria inodora ORYZA: Oryza sativa PHPBU: Pharbitis purpurea POLCO: Polygonum convolvulus SETVI: Setaria viridis VERPE: Veronica persica VIOTR: Viola tricolor TRZAS: Triticum aestivum ZEAMX: Zea mays
(§2) Samen von mono- bzw. dikotylen Kulturpflanzen wurden in Kunststoff- oder Holzfasertöpfen in sandigem Lehmboden ausgelegt, mit Erde abgedeckt und im Gewächshaus unter kontrollierten Wachstumsbedingungen angezogen. 2 bis 3 Wochen nach der Aussaat wurden die Versuchspflanzen im Einblattstadium behandelt. Die in Form von benetzbaren Pulvern (WP) oder als Emulsionskonzentrate (EC) formulierten erfindungsgemäßen Verbindungen wurden dann als wässrige Suspension bzw. Emulsion unter Zusatz von 0,5% Additiv mit einer Wasseraufwandmenge von umgerechnet 600 1/ha auf die grünen Pflanzenteile gesprüht. Nach ca. 3 Wochen Standzeit der Versuchspflanzen im Gewächshaus, unter optimalen Wachstumsbedingungen, wurde die Wirkung der Präparate visuell im Vergleich zu unbehandelten Kontrollen bonitiert. Beispielsweise bedeutet 100% Wirkung = Pflanzen sind abgestorben, 0% Wirkung = wie Kontrollpflanzen.
(§3) In den nachstehenden Tabellen B1 bis B3 sind die Wirkungen ausgewählter Verbindungen der allgemeinen Formel (I) gemäß der Tabelle 1 auf verschiedene Kulturpflanzen und einer Aufwandmenge entsprechend 20 g/ha und niedriger, die gemäß zuvor genannter Versuchsvorschrift erhalten wurden, dargestellt. Tabelle B1a: Nachauflaufwirkung bei 5 g/ha gegen ZEAMX in %

[2] = test system: Pharbitis purpurea; test: Post-emergence herbicidal action against PHBPU (greenhouse pot test)
Source text: as §1
as §2, with “Unkrautpflanzen” for “Kulturpflanzen”
as §3, with “A1” for “B1”, “A11” for “B3”, “Schadpflanzen” for “Kulturpflanzen”, “80” for “20”, “A1a:” for “B1a:”, “ABUTH” for “ZEAMX”

[3] = test system: Abutilon theophrasti; test: Post-emergence herbicidal action against ABUTH (greenhouse pot test); conditions: visual rating after ca. 3 weeks vs untreated controls (100% = plants dead, 0% = like controls)
Source text: as §1
as §2, with “Unkrautpflanzen” for “Kulturpflanzen”
as §3, with “A1” for “B1”, “A11” for “B3”, “Schadpflanzen” for “Kulturpflanzen”, “80” for “20”, “A1a:” for “B1a:”, “ABUTH” for “ZEAMX”

[4] = test system: Polygonum convolvulus; test: Post-emergence herbicidal action against POLCO (greenhouse pot test)
Source text: as §1
as §2, with “Unkrautpflanzen” for “Kulturpflanzen”
as §3, with “A1” for “B1”, “A11” for “B3”, “Schadpflanzen” for “Kulturpflanzen”, “80” for “20”, “A1a:” for “B1a:”, “ABUTH” for “ZEAMX”

[5] = test system: Veronica persica; test: Post-emergence herbicidal action against VERPE (greenhouse pot test)
Source text: as §1
as §2, with “Unkrautpflanzen” for “Kulturpflanzen”
as §3, with “A1” for “B1”, “A11” for “B3”, “Schadpflanzen” for “Kulturpflanzen”, “80” for “20”, “A1a:” for “B1a:”, “ABUTH” for “ZEAMX”

[6] = test system: Lolium rigidum; test: Post-emergence herbicidal action against LOLRI (greenhouse pot test); conditions: 80 g/ha, visual rating after ca. 3 weeks vs untreated controls (100% = plants dead, 0% = like controls)
Source text: as §1
as §2, with “Unkrautpflanzen” for “Kulturpflanzen”
as §3, with “A1” for “B1”, “A11” for “B3”, “Schadpflanzen” for “Kulturpflanzen”, “80” for “20”, “A1a:” for “B1a:”, “ABUTH” for “ZEAMX”

[7] = test system: Viola tricolor; test: Post-emergence herbicidal action against VIOTR (greenhouse pot test)
Source text: as §1
as §2, with “Unkrautpflanzen” for “Kulturpflanzen”
as §3, with “A1” for “B1”, “A11” for “B3”, “Schadpflanzen” for “Kulturpflanzen”, “80” for “20”, “A1a:” for “B1a:”, “ABUTH” for “ZEAMX”

[8] = test system: Matricaria inodora; test: Post-emergence herbicidal action against MATIN (greenhouse pot test); conditions: for Nachauflaufwirkung gegen MATIN: visual rating after ca. 3 weeks vs untreated controls (100% = plants dead, 0% = like controls); for Nachauflaufwirkung gegen MATIN in %: 80 g/ha
Source text: as §1
as §2, with “Unkrautpflanzen” for “Kulturpflanzen”
as §3, with “A1” for “B1”, “A11” for “B3”, “Schadpflanzen” for “Kulturpflanzen”, “80” for “20”, “A1a:” for “B1a:”, “ABUTH” for “ZEAMX”

[9] = test system: Amaranthus retroflexus; test: Post-emergence herbicidal action against AMARE (greenhouse pot test); conditions: visual rating after ca. 3 weeks vs untreated controls (100% = plants dead, 0% = like controls)
Source text: as §1
as §2, with “Unkrautpflanzen” for “Kulturpflanzen”
as §3, with “A1” for “B1”, “A11” for “B3”, “Schadpflanzen” for “Kulturpflanzen”, “80” for “20”, “A1a:” for “B1a:”, “ABUTH” for “ZEAMX”

[10] = test system: Setaria viridis; test: Post-emergence herbicidal action against SETVI (greenhouse pot test)
Source text: as §1
as §2, with “Unkrautpflanzen” for “Kulturpflanzen”
as §3, with “A1” for “B1”, “A11” for “B3”, “Schadpflanzen” for “Kulturpflanzen”, “80” for “20”, “A1a:” for “B1a:”, “ABUTH” for “ZEAMX”

[11] = test system: Digitaria sanguinalis; test: Post-emergence herbicidal action against DIGSA (greenhouse pot test); conditions: visual rating after ca. 3 weeks vs untreated controls (100% = plants dead, 0% = like controls)
Source text: as §1
as §2, with “Unkrautpflanzen” for “Kulturpflanzen”
as §3, with “A1” for “B1”, “A11” for “B3”, “Schadpflanzen” for “Kulturpflanzen”, “80” for “20”, “A1a:” for “B1a:”, “ABUTH” for “ZEAMX”

[12] = test system: Alopecurus myosuroides; test: Post-emergence herbicidal action against ALOMY (greenhouse pot test); conditions: visual rating after ca. 3 weeks vs untreated controls (100% = plants dead, 0% = like controls)
Source text: as §1
as §2, with “Unkrautpflanzen” for “Kulturpflanzen”
as §3, with “A1” for “B1”, “A11” for “B3”, “Schadpflanzen” for “Kulturpflanzen”, “80” for “20”, “A1a:” for “B1a:”, “ABUTH” for “ZEAMX”

[13] = test system: Zea mays; test: Post-emergence action on crop plants, ZEAMX (greenhouse pot test); conditions: 5 g/ha, crop plant
Source text: as §1, §2, §3

| SMILES | Nachauflaufwirkung gegen TRZAS in % ([1]; 5 g/ha) [%] | Nachauflaufwirkung gegen TRZAS in % ([1]; 20 g/ha) [%] | Nachauflaufwirkung gegen PHBPU in % ([2]; 5 g/ha) [%] | Nachauflaufwirkung gegen PHBPU in % ([2]; 20 g/ha) [%] | Nachauflaufwirkung gegen PHBPU in % ([2]; 80 g/ha) [%] | Nachauflaufwirkung gegen ABUTH ([3]; 5 g/ha) [%] | Nachauflaufwirkung gegen ABUTH ([3]; 20 g/ha) [%] | Nachauflaufwirkung gegen ABUTH ([3]; 80 g/ha) [%] | Nachauflaufwirkung gegen POLCO in % ([4]; 5 g/ha) [%] | Nachauflaufwirkung gegen POLCO in % ([4]; 20 g/ha) [%] | Nachauflaufwirkung gegen POLCO in % ([4]; 80 g/ha) [%] | Nachauflaufwirkung gegen VERPE in % ([5]; 5 g/ha) [%] | Nachauflaufwirkung gegen VERPE in % ([5]; 20 g/ha) [%] | Nachauflaufwirkung gegen VERPE in % ([5]; 80 g/ha) [%] | Nachauflaufwirkung gegen LOLRI [6] [%] | Nachauflaufwirkung gegen VIOTR in % ([7]; 5 g/ha) [%] | Nachauflaufwirkung gegen VIOTR in % ([7]; 20 g/ha) [%] | Nachauflaufwirkung gegen VIOTR in % ([7]; 80 g/ha) [%] | Nachauflaufwirkung gegen MATIN ([8]; 5 g/ha) [%] | Nachauflaufwirkung gegen MATIN ([8]; 20 g/ha) [%] | further results |
| --- | --- | --- | --- | --- | --- | --- | --- | --- | --- | --- | --- | --- | --- | --- | --- | --- | --- | --- | --- | --- | --- |
| Cn1c(C(F)(F)F)cc(=O)n(-c2cc(C(=O)OC(C)(C)C(=O)OCC#N)c(Cl)cc2F)c1=O [I.1-176, 1-(Cyanmethoxy)-2-methyl-1-oxopropan-2-yl-2-chlor-4-fluor-5-[3-methyl-2,6-dioxo-4-(trifluormethyl)-3,6-dihydropyrimidin-1(2H)-yl]benzoat] | 10 | 10 | 100 | 100 | 100 | 100 | 100 | 100 | 100 | 100 | 100 | 100 | 100 | 100 | 90 | 100 | 100 | 100 | 100 | 100 | Nachauflaufwirkung gegen MATIN in % [8]: 100%; Nachauflaufwirkung gegen AMARE ([9]; 5 g/ha): 100%; Nachauflaufwirkung gegen AMARE ([9]; 20 g/ha): 100%; Nachauflaufwirkung gegen AMARE ([9]; 80 g/ha): 100%; Nachauflaufwirkung gegen SETVI in % ([10]; 5 g/ha): 100%; Nachauflaufwirkung gegen SETVI in % ([10]; 20 g/ha): 100%; Nachauflaufwirkung gegen SETVI in % ([10]; 80 g/ha (dose column; title A9c prints 20 g/ha)): 100%; Nachauflaufwirkung gegen DIGSA ([11]; 5 g/ha): 100%; Nachauflaufwirkung gegen DIGSA ([11]; 20 g/ha): 100%; Nachauflaufwirkung gegen DIGSA ([11]; 80 g/ha): 100%; Nachauflaufwirkung gegen ALOMY ([12]; 20 g/ha): 80%; Nachauflaufwirkung gegen ALOMY ([12]; 80 g/ha): 100% |
| CC(C)=NOC(=O)C(C)(C)OC(=O)c1cc(-n2c(=O)cc(C(F)(F)F)n(C)c2=O)c(F)cc1Cl [I.1-476] | 10 | 10 | 100 | 100 | 100 | 100 | 100 | 100 | 100 | 100 | 100 | 100 | 100 | 100 | 100 | 100 | 100 | 100 | 100 | 100 | Nachauflaufwirkung gegen MATIN in % [8]: 100%; Nachauflaufwirkung gegen AMARE ([9]; 5 g/ha): 100%; Nachauflaufwirkung gegen AMARE ([9]; 20 g/ha): 100%; Nachauflaufwirkung gegen AMARE ([9]; 80 g/ha): 100%; Nachauflaufwirkung gegen ZEAMX in % [13]: 20%; Nachauflaufwirkung gegen SETVI in % ([10]; 5 g/ha): 100%; Nachauflaufwirkung gegen SETVI in % ([10]; 20 g/ha): 100%; Nachauflaufwirkung gegen SETVI in % ([10]; 80 g/ha): 100%; Nachauflaufwirkung gegen DIGSA ([11]; 5 g/ha): 100%; Nachauflaufwirkung gegen DIGSA ([11]; 20 g/ha): 100%; Nachauflaufwirkung gegen DIGSA ([11]; 80 g/ha): 100%; Nachauflaufwirkung gegen ALOMY ([12]; 20 g/ha): 100%; Nachauflaufwirkung gegen ALOMY ([12]; 80 g/ha): 100% |
